The results in this text go back to patent US8236845B2, “Heterocyclyl-substituted-tetrahydro-naphthalen-amine derivatives, their preparation and use as medicaments” (Laboratorios del Dr. Esteve, S.A., priority 2007, dated 2012).

The assay deals with T1, Cloned Human Serotonin Receptor, Subtype 7 (h5HT7) (Homo sapiens, UniProt P34969).
T1 construct: purchased PerkinElmer 6120512; host or cells: CHO cells (membranes coated on Basic FlashPlate, Cat. SMP200)
The assay is described as follows: Radioligand binding assay, [125I]LSD, cloned human 5-HT7 receptor expressed in CHO cells. The settings on record: radioligand [125I]LSD 0.82 nM. The protocol:
Radioligand binding assays were performed using the Cloned Human Serotonin Receptor, Subtype 7 (h5HT7), expressed in CHO cells, coated on Flashplate (Basic FlashPlate Cat.: SMP200) from PerkinElmer (Cat.: 6120512). The protocol assay was essentially the recommended protocol in the Technical Data Sheet by PerkinEmer Life and Analytical Sciences. The Mass membrane protein/well was typically 12 μg and the Receptor/well was about 9-10 fmoles. The Flashplate were let equilibrate at room temperature for one hour before the addition of the components of the assay mixture. The binding buffer was: 50 mM Tris-HCl, pH 7.4, containing 10 mM MgCl2, 0.5 mM EDTA and 0.5% BSA. The radioligand was [^125I]LSD at a final concentration of 0.82 nM. Nonspecific binding was determined with 50 μM of Clozapine. The assay volume was 25 μl. TopSeal-A were applied onto Flashplate microplates and they were incubated at room temperature for 240 minutes in darkness. The radioactivity were quantified by liquid scintillation spectrophotometry (Wallac 1450 Microbeta Trilux) with a count delay of 4 minutes prior to counting and a counting time of 30 seconds per well. Competition binding data were analyzed by using the LIGAND program (Munson and Rodbard, LIGAND: A versatile, computerized approach for characterization of ligand-binding systems. Anal. Biochem. 107: 220-239, 1980) and assays were performed in triplicate determinations for each point.

Counter-ions that a name gives are not always drawn.

T1 sequence (P34969 whole entry): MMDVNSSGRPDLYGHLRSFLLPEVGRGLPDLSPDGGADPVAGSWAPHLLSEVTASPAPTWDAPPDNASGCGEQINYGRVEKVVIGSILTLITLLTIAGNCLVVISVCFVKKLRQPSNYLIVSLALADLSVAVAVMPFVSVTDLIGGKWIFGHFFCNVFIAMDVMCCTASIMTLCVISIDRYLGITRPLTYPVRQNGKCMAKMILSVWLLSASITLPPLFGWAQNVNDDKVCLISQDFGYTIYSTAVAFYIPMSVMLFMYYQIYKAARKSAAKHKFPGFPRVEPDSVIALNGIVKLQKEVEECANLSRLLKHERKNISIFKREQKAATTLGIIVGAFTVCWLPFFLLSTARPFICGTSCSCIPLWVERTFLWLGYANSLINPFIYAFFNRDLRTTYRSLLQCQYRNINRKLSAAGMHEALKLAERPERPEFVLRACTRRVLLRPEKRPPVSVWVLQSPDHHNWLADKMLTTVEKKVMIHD

The IC50 is the concentration that inhibits the measured activity by half. High values mean a need for much substance, low ones inhibition by little substance. As for `Cc1n[nH]c(C)c1-c1cccc2c1CC[C@H](N(C)C)C2` [Example L, (2S)-[5-(3,5-Dimethyl-1H-pyrazol-4-yl)-1,2,3,4-tetrahydro-naphthalen-2-yl]-dimethyl-amine dihydrochloride], the IC50 was 0.0184 ± 0.0025 µM.

Broadly, the Ki is a dissociation constant, usually derived from enzyme kinetics or from competition with a known ligand. Read a high Ki as weaker binding. The compound `COc1cccc(Cl)c1-c1cccc2c1CCC(N(C)C)C2` (centres unmarked) [AH, [5-(2-Chloro-6-methoxy-phenyl)-1,2,3,4-tetrahydro-naphthalen-2-yl]-dimethyl-amine] had a Ki of 0.0116 ± 0.003 µM.

Compound `Cc1nn(C)c(C)c1-c1cccc2c1CCC(N1CCCC1)C2` (centres unmarked) [O, 1,3,5-Trimethyl-4-(6-pyrrolidin-1-yl-5,6,7,8-tetrahydro-naphthalen-1-yl)-1H-pyrazole] displayed a Ki of 0.0963 ± 0.002 µM.

Turning to `CCN(C)C1CCc2c(cccc2-c2c(C)nn(C)c2C)C1` (centres unmarked) [T, Ethyl-methyl-[5-(1,3,5-trimethyl-1H-pyrazol-4-yl)-1,2,3,4-tetrahydro-naphthalen-2-yl]-amine], the affinity, expressed as Ki, was 0.0103 ± 0.0004 µM.

In turn, `Cc1nn(C)c(C)c1-c1cccc2c1CC[C@H](N(C)C(C)C)C2` [Example AB, (2S)-Isopropyl-methyl-[5-(1,3,5-trimethyl-1H-pyrazol-4-yl)-1,2,3,4-tetrahydro-naphthalen-2-yl]-amine] registered a Ki of 0.644 ± 0.0635 µM.

On to `Cc1nn(C)c(C)c1-c1cccc2c1CC[C@@H](N(C)C)C2` [Example J, (2R)-Dimethyl-[5-(1,3,5-trimethyl-1H-pyrazol-4-yl)-1,2,3,4-tetrahydro-naphthalen-2-yl]-amine dihydrochloride], for which the IC50 worked out at 0.178 µM.

Turning to `COc1ccccc1-c1cccc2c1CCC(N(C)C)C2` (centres unmarked) [AF, [5-(2-Methoxy-phenyl)-1,2,3,4-tetrahydro-naphthalen-2-yl]-dimethyl-amine], the affinity corresponds to a Ki of 0.0258 ± 0.0046 µM.

Compound `CCCN(C(C)C)[C@H]1CCc2c(cccc2-c2c(C)nn(C)c2C)C1` [AC, (2S)-Isopropyl-propyl-[5-(1,3,5-trimethyl-1H-pyrazol-4-yl)-1,2,3,4-tetrahydro-naphthalen-2-yl]-amine] yielded a Ki of 0.227 ± 0.0113 µM.

Compound `COc1ncccc1-c1cccc2c1CCC(N(C)C)C2` (centres unmarked) [AI, [5-(2-Methoxy-pyridin-3-yl)-1,2,3,4-tetrahydro-naphthalen-2-yl]-dimethyl-amine] showed a Ki of 0.0616 ± 0.0058 µM.

`CCCN(C)C1CCc2c(cccc2-c2c(C)nn(C)c2C)C1` (centres unmarked) [R, Methyl-propyl-[5-(1,3,5-trimethyl-1H-pyrazol-4-yl)-1,2,3,4-tetrahydro-naphthalen-2-yl]-amine] gave a Ki of 0.0091 ± 0.0015 µM.

`CCN(CC)C1CCc2c(cccc2-c2c(C)nn(C)c2C)C1` (centres unmarked) [Example S, Diethyl-[5-(1,3,5-trimethyl-1H-pyrazol-4-yl)-1,2,3,4-tetrahydro-naphthalen-2-yl]-amine] came in with a Ki of 0.13 µM.
